Columns and labels:
[1] = test system: wildtype Wnt signaling cascade; assay: HEK293 TOP Assay (Super TopFlash luciferase reporter, Wnt-3a stimulated); type: cell-based; conditions: Homo sapiens, HEK293, 16 h, HEK293 TOP reporter cell line, Wnt-3a at EC50, 16 hours incubation, compound dilution series 50 μM to 15 nM
How it was run: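 HEK293 cells stably carrying Super TopFlash (TOP) or FOP reporter, stimulated with recombinant human Wnt-3a (2500–5 ng/ml, two-fold steps). Both lines incubated in parallel with compound from 50 μM to 15 nM (3.16-fold) in CAFTY buffer pH 7.4 with 2 mM Ca2+ and 0.01% BSA; selectivity judged TOP vs FOP.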

[2] = molecular target: T1, TNKS1 (Homo sapiens, UniProt O95271); assay: Modified TNKS1 Assay 2 (auto-parsylation, [3H]-NAD+ SPA); type: biochemical; conditions: 6 nM TNKS1, 96 well
T1 sequence (O95271 1-1327): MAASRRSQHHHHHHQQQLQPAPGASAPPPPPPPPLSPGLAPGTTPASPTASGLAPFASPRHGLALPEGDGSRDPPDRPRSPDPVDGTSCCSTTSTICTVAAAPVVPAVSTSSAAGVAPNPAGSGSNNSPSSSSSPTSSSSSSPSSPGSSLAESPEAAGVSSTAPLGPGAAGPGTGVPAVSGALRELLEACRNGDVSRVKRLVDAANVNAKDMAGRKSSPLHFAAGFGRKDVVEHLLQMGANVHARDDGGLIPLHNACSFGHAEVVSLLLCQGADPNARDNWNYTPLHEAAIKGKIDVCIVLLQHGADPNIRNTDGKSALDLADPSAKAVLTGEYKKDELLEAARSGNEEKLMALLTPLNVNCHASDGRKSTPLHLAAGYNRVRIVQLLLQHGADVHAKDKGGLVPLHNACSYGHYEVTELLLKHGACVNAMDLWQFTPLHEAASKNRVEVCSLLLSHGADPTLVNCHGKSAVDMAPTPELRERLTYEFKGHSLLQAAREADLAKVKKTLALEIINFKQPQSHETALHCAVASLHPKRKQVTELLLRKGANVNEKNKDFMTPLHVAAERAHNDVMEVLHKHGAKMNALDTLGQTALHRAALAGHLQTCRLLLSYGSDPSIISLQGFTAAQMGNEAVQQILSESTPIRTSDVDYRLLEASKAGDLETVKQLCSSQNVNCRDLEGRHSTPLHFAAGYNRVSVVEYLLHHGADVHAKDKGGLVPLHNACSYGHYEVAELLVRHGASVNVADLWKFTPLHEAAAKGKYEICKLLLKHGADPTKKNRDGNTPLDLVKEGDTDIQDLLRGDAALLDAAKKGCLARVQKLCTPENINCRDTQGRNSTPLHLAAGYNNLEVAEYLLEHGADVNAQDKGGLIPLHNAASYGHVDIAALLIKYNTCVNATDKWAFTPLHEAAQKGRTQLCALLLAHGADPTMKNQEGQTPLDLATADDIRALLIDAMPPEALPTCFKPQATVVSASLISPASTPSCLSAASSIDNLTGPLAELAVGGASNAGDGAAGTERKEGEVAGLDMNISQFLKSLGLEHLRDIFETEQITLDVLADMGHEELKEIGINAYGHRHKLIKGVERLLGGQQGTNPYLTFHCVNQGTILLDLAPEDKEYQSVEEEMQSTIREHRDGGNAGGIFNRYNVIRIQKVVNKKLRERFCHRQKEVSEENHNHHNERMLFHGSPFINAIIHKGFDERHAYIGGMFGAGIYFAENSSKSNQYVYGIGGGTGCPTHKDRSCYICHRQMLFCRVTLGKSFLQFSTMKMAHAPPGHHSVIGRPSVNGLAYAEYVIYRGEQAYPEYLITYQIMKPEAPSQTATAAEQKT

Structure (SMILES) | IC50 [1] [nM] | IC50 [2] [nM]
CCc1nc(C(=O)Nc2ccc(NC(=O)c3ccc(F)cc3Cl)cc2)c(C(=O)NC)[nH]1 [Example 68, N^4-{4-[(2-chloro-4-fluorobenzoyl)amino]phenyl}-2-ethyl-N^5-methyl-1H-imidazole-4,5-dicarboxamide] | 2150 | > 10000
COC(=O)c1nc[nH]c1C(=O)Nc1ccc(NC(=O)c2ccc(F)cc2Cl)c(F)c1 [Example 71, methyl 5-({4-[(2-chloro-4-fluorobenzoyl)amino]-3-fluorophenyl}carbamoyl)-1H-imidazole-4-carboxylate] | 340 | 100
CN(C)CCNC(=O)c1nc[nH]c1C(=O)Nc1ccc(NC(=O)c2ccc(F)cc2Cl)c(F)c1 [Example 73, N^5-{4-[(2-chloro-4-fluorobenzoyl)amino]-3-fluorophenyl}-N^4-[2-(dimethylamino)ethyl]-1H-imidazole-4,5-dicarboxamide] | 360 | 10
CN(C)CCNC(=O)c1nc[nH]c1C(=O)Nc1ccc(NC(=O)c2ccc(F)cc2)c(F)c1 [Example 77, N^4-[2-(dimethylamino)ethyl]-N^5-{3-fluoro-4-[(4-fluorobenzoyl)amino]phenyl}-1H-imidazole-4,5-dicarboxamide] | 4400 | 990
O=C(Nc1ccc(NC(=O)c2[nH]cnc2C(=O)NCCN2CCCCC2)cc1F)c1ccc(F)cc1 [Example 78, N^5-{3-fluoro-4-[(4-fluorobenzoyl)amino]phenyl}-N^4-[2-(piperidin-1-yl)ethyl]-1H-imidazole-4,5-dicarboxamide] | 280 | > 10000
CNC(=O)c1nc[nH]c1C(=O)Nc1ccc(NC(=O)c2ccccc2Cl)c(F)c1 [Example 80, N^5-{4-[(2-chlorobenzoyl)amino]-3-fluorophenyl}-N^4-methyl-1H-imidazole-4,5-dicarboxamide] | 820 | 690
CN(C)CCNC(=O)c1nc[nH]c1C(=O)Nc1ccc(NC(=O)c2ccccc2Cl)c(F)c1 [Example 81, N^5-{4-[(2-chlorobenzoyl)amino]-3-fluorophenyl}-N^4-[2-(dimethylamino)ethyl]-1H-imidazole-4,5-dicarboxamide] | 660 | 60
Cc1cc(NC(=O)c2[nH]cnc2C(=O)NCCN(C)C)ccc1NC(=O)c1ccc(F)cc1Cl [Example 84, N^5-{4-[(2-chloro-4-fluorobenzoyl)amino]-3-methylphenyl}-N^4-[2-(dimethylamino)ethyl]-1H-imidazole-4,5-dicarboxamide] | 620 | 170
Cc1cc(NC(=O)c2[nH]cnc2C(=O)NCCN2CCCCC2)ccc1NC(=O)c1ccc(F)cc1Cl [Example 85, N^5-{4-[(2-chloro-4-fluorobenzoyl)amino]-3-methylphenyl}-N^4-[2-(piperidin-1-yl)ethyl]-1H-imidazole-4,5-dicarboxamide] | 160 | 9
CCNC(=O)c1nc[nH]c1C(=O)Nc1ccc(NC(=O)c2cccc(OC)c2Cl)cc1 [Example 260, N^5-{4-[(2-chloro-3-methoxybenzoyl)amino]phenyl}-N^4-ethyl-1H-imidazole-4,5-dicarboxamide] | 2100 | 3000
CCNC(=O)c1nc[nH]c1C(=O)Nc1ccc(NC(=O)c2ncccc2Cl)cc1 [Example 261, N^5-(4-{[(3-chloropyridin-2-yl)carbonyl]amino}phenyl)-N^4-ethyl-1H-imidazole-4,5-dicarboxamide] | 22200 | 230
CCNC(=O)c1nc[nH]c1C(=O)Nc1ccc(NC(=O)c2cnccc2Cl)cc1 [Example 263, N^5-(4-{[(4-chloropyridin-3-yl)carbonyl]amino}phenyl)-N^4-ethyl-1H-imidazole-4,5-dicarboxamide] | 360 | 300
CCNC(=O)c1nc[nH]c1C(=O)Nc1ccc(NC(=O)c2cc(OC)ccc2Cl)cc1 [Example 264, N^5-{4-[(2-chloro-5-methoxybenzoyl)amino]phenyl}-N^4-ethyl-1H-imidazole-4,5-dicarboxamide] | 1600 | 90
C[C@@H]1CCCCN1CCNC(=O)c1[nH]cnc1C(=O)Nc1ccc(NC(=O)c2ccc(F)cc2Cl)cc1 [Example 267, N^4-{4-[(2-chloro-4-fluorobenzoyl)amino]phenyl}-N^5-{2-[(2R)-2-methylpiperidin-1-yl]ethyl}-1H-imidazole-4,5-dicarboxamide] | 20 | 7
C[C@@H]1CCCN(CCNC(=O)c2[nH]cnc2C(=O)Nc2ccc(NC(=O)c3ccc(F)cc3Cl)cc2)C1 [Example 278, N^4-{4-[(2-chloro-4-fluorobenzoyl)amino]phenyl}-N^5-{2-[(3R)-3-methylpiperidin-1-yl]ethyl}-1H-imidazole-4,5-dicarboxamide] | 90 | 5
O=C(Nc1ccc(NC(=O)c2nc[nH]c2C(=O)NCCN2CCC(F)(F)C2)cc1)c1ccc(F)cc1Cl [Example 279, N^4-{4-[(2-chloro-4-fluorobenzoyl)amino]phenyl}-N^5-[2-(3,3-difluoropyrrolidin-1-yl)ethyl]-1H-imidazole-4,5-dicarboxamide] | 910 | 20
O=C(Nc1ccc(NC(=O)c2nc[nH]c2C(=O)N[C@H]2CCNC2)cc1)c1ccc(F)cc1Cl [Example 281, N^4-{4-[(2-chloro-4-fluorobenzoyl)amino]phenyl}-N^5-[(3S)-pyrrolidin-3-yl]-1H-imidazole-4,5-dicarboxamide] | 1200 | 60
NCCNC(=O)c1[nH]cnc1C(=O)Nc1ccc(NC(=O)c2ccc(F)cc2Cl)cc1 [Example 290, N^5-(2-aminoethyl)-N^4-{4-[(2-chloro-4-fluorobenzoyl)amino]phenyl}-1H-imidazole-4,5-dicarboxamide] | 710 | 40
O=C(Nc1ccc(NC(=O)c2nc[nH]c2C(=O)NCCN2CCCCC2)cc1OC(F)(F)F)c1ccc(F)cc1Cl [Example 293, N^4-{4-[(2-chloro-4-fluorobenzoyl)amino]-3-(trifluoromethoxy)phenyl}-N^5-[2-(piperidin-1-yl)ethyl]-1H-imidazole-4,5-dicarboxamide] | 570 | 80
CC(CN1CCOCC1)NC(=O)c1[nH]cnc1C(=O)Nc1ccc(NC(=O)c2ccc(F)cc2)cc1 (stereo not drawn) [Example 294, N^4-{4-[(4-fluorobenzoyl)amino]phenyl}-N^5-[1-(morpholin-4-yl)propan-2-yl]-1H-imidazole-4,5-dicarboxamide] | 1550 | 210
CN1CCCC(CNC(=O)c2[nH]cnc2C(=O)Nc2ccc(NC(=O)c3ccc(F)cc3Cl)cc2)C1 (stereo not drawn) [Example 298, N^4-{4-[(2-chloro-4-fluorobenzoyl)amino]phenyl}-N^5-[(1-methylpiperidin-3-yl)methyl]-1H-imidazole-4,5-dicarboxamide] | 300 | 40
O=C(Nc1ccc(NC(=O)c2ocnc2C(=O)NCCN2CCCCC2)cc1)c1ccc(F)cc1Cl [Example 303, N^5-{4-[(2-chloro-4-fluorobenzoyl)amino]phenyl}-N^4-[2-(piperidin-1-yl)ethyl]-1,3-oxazole-4,5-dicarboxamide] | 140 | 8
CNC(=O)c1nc[nH]c1C(=O)Nc1ccc(NC(=O)c2cc(Cl)ccc2Cl)cc1 [Example 309, N^5-{4-[(2,5-dichlorobenzoyl)amino]phenyl}-N^4-methyl-1H-imidazole-4,5-dicarboxamide] | 240 | 410
CNC(=O)c1nc[nH]c1C(=O)Nc1ccc(NC(=O)c2cc(Br)ccc2Cl)cc1 [Example 313, N^5-{4-[(5-bromo-2-chlorobenzoyl)amino]phenyl}-N^4-methyl-1H-imidazole-4,5-dicarboxamide] | 410 | 420

Reference: patent publication US9884063B2, “Amido-substituted azole compounds” (Bayer Pharma Aktiengesellschaft, priority 2014, dated 2018)
